Reference: ChEMBL document CHEMBL1140437, “N-substituted cis-4a-(3-hydroxyphenyl)-8a-methyloctahydroisoquinolines are opioid receptor pure antagonists” (J Med Chem, 2005)

What was measured:
[1] = target: Kappa-type opioid receptor (Homo sapiens) (UniProt P41145)
Description: Inhibition of U69,593 stimulated [35S]GTP-gamma-S binding to cloned human kappa opioid receptor

[2] = target: Delta-type opioid receptor (Homo sapiens) (UniProt P41143)
Description: Inhibition of DPDPE stimulated [35S]GTP-gamma-S binding to cloned human delta opioid receptor

[3] = target: Opioid receptors; mu & kappa (Homo sapiens) (UniProt P41145+P35372); test: Selectivity for cloned human mu opioid receptor over kappa opioid receptor; type: protein assay
Sequence of Opioid receptors; mu & kappa (Homo sapiens) (P35372 whole entry, looked up): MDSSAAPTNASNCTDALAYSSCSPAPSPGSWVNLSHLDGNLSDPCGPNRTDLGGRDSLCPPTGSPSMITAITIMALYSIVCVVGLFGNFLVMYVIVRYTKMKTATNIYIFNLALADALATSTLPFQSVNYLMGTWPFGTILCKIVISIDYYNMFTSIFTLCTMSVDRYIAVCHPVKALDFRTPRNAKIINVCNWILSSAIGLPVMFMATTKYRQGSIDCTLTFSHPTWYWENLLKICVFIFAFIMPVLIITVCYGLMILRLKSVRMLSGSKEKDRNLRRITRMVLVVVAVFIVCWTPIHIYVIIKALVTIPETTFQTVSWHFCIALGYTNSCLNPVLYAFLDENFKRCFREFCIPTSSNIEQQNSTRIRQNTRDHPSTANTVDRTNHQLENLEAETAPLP
Sequence of Opioid receptors; mu & kappa (Homo sapiens) (P41145 whole entry, looked up): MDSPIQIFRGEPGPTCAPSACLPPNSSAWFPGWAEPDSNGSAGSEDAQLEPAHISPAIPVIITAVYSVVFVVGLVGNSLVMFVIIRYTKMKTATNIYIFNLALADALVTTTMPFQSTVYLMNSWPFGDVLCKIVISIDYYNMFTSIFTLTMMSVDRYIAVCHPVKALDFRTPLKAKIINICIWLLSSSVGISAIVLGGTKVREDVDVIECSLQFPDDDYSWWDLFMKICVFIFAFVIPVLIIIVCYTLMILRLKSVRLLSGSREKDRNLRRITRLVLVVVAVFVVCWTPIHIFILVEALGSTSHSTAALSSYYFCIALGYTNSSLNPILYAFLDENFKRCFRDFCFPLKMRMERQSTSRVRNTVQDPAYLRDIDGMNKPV

[4] = target: Mu-type opioid receptor (Homo sapiens) (UniProt P35372)
Sequence of Mu-type opioid receptor (Homo sapiens) (P35372 whole entry): as the sequence (P35372 whole entry, looked up) above
Description: Inhibition of DAMGO stimulated [35S]GTP-gamma-S binding to cloned human mu opioid receptor

[5] = target: Opioid receptors; delta & kappa (Homo sapiens) (UniProt P41145+P41143); test: Selectivity for cloned human delta opioid receptor over kappa opioid receptor; type: protein assay
Sequence of Opioid receptors; delta & kappa (Homo sapiens) (P41143 whole entry, looked up): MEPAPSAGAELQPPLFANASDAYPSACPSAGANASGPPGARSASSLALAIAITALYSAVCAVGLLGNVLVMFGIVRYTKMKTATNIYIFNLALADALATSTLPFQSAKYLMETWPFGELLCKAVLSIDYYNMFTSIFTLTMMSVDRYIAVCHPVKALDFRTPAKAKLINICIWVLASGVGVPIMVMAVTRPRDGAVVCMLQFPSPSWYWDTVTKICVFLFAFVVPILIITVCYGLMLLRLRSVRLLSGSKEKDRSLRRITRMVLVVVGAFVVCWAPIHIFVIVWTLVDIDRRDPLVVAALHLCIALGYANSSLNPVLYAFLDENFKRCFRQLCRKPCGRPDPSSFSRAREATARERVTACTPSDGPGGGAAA
Sequence of Opioid receptors; delta & kappa (Homo sapiens) (P41145 whole entry, looked up): as the sequence (P41145 whole entry, looked up) above

Sequence of Delta-type opioid receptor (Homo sapiens) (P41143 whole entry): as the sequence (P41143 whole entry, looked up) above
Sequence of Kappa-type opioid receptor (Homo sapiens) (P41145 whole entry): as the sequence (P41145 whole entry, looked up) above

SMILES | Ke [1] [nM] | Ke [2] [nM] | Ratio Ke [3] | Ke [4] [nM] | Ratio Ke [5]
C[C@]12CCCC[C@@]1(c1cccc(O)c1)CCN(CCc1ccccc1)C2 (relative stereo) | 2.84 | 18.9 | 0.3 | 0.84 | 7
C[C@]12CC[C@@H](NC(=O)CCN3CCCCC3)C[C@@]1(c1cccc(O)c1)CCN(CCCc1ccccc1)C2 (relative stereo) | 0.27 | 12.3 | 154 | 41.7 | 46
C[C@H]1CN(CC[C@H](O)C2CCCCC2)CC[C@@]1(C)c1cccc(O)c1 | – | 0.6 | – | 0.1 | –
Oc1ccc2c3c1O[C@H]1c4[nH]c5c(c4C[C@@]4(O)[C@@H](C2)N(CC2CC2)CC[C@]314)C[C@@]1(O)[C@H]2Cc3ccc(O)c4c3[C@@]1(CCN2CC1CC1)[C@H]5O4 | – | – | 475 | – | 110
C[C@]12CCCC[C@@]1(c1cccc(O)c1)CCN(CCCc1ccccc1)C2 (relative stereo) | 1.03 | 12.4 | 0.8 | 0.8 | 12
C[C@]12CC[C@@H](NC(=O)CCN3CCc4ccccc4C3)C[C@@]1(c1cccc(O)c1)CCN(CCCc1ccccc1)C2 (relative stereo) | 0.22 | 4.56 | 45 | 9.82 | 21
CN1CC[C@]2(c3cccc(O)c3)CCCC[C@]2(C)C1 | 3.37 | 477 | 29 | 99.4 | 141
C[C@]12CC[C@@H](NC(=O)C3(c4ccccc4)CCCC3)C[C@@]1(c1cccc(O)c1)CCN(CCCc1ccccc1)C2 | 1.93 | 6.46 | 0.8 | 1.46 | 3
C[C@]12CC[C@@H](NC(=O)c3cc4ccccc4s3)C[C@@]1(c1cccc(O)c1)CCN(CCCc1ccccc1)C2 (relative stereo) | 0.46 | 1.01 | 25 | 11.3 | 2
